pIC50: −log10 of the molar value.
Key:
FLT3 = molecular target: T1, FLT3 (Homo sapiens, UniProt P36888); experiment: TR-FRET kinase activity assay, FLT3; format: biochemical; conditions: ATP at Km, 60 minutes
T1 sequence (P36888 27-993): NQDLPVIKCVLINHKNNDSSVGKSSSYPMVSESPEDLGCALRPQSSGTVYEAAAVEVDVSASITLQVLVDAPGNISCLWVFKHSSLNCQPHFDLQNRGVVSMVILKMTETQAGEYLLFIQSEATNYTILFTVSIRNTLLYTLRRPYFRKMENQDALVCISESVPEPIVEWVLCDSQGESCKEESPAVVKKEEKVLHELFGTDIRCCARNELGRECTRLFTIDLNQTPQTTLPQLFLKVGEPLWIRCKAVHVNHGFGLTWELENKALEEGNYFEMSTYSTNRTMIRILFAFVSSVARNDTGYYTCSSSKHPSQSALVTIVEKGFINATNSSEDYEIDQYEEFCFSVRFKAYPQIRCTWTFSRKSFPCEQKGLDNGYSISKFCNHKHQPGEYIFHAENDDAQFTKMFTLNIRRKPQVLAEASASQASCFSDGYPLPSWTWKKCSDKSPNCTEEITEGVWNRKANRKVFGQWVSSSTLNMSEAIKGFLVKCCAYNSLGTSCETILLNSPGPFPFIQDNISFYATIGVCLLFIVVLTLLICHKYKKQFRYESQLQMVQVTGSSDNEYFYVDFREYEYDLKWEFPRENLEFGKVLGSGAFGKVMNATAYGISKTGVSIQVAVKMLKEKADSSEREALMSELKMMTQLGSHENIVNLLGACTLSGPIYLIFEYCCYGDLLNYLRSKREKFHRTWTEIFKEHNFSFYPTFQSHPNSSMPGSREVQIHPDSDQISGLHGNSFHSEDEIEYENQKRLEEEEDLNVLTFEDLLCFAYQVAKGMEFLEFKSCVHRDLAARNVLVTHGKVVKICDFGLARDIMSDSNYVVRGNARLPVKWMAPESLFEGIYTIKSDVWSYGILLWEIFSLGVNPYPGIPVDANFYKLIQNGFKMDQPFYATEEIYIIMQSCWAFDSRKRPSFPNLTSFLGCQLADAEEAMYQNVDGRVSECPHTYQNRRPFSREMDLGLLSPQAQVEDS
In short: (§1)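 Buffer 50 mM HEPES pH 7.5/10 mM MgCl2/1 mM EGTA/0.01% Brij 35/1 mM DTT, RT. Km ATP per kinase, labeled peptide, 60 min; 12.5 mM EDTA stop; Eu-Ab 30 min dark; TR-FRET → IC50.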

MERTK = molecular target: T2, MERTK (Homo sapiens, UniProt Q12866); experiment: TR-FRET kinase activity assay, MERTK; format: biochemical; conditions: for pIC50: TR-FRET activity assay, ATP at Km, 60 minutes, read-out: Mer IC50; for Mer/Flt3 ratio (FLT3 IC50/Mer IC50): ratio calculated as FLT3 IC50/Mer IC50
T2 sequence (Q12866 21-999): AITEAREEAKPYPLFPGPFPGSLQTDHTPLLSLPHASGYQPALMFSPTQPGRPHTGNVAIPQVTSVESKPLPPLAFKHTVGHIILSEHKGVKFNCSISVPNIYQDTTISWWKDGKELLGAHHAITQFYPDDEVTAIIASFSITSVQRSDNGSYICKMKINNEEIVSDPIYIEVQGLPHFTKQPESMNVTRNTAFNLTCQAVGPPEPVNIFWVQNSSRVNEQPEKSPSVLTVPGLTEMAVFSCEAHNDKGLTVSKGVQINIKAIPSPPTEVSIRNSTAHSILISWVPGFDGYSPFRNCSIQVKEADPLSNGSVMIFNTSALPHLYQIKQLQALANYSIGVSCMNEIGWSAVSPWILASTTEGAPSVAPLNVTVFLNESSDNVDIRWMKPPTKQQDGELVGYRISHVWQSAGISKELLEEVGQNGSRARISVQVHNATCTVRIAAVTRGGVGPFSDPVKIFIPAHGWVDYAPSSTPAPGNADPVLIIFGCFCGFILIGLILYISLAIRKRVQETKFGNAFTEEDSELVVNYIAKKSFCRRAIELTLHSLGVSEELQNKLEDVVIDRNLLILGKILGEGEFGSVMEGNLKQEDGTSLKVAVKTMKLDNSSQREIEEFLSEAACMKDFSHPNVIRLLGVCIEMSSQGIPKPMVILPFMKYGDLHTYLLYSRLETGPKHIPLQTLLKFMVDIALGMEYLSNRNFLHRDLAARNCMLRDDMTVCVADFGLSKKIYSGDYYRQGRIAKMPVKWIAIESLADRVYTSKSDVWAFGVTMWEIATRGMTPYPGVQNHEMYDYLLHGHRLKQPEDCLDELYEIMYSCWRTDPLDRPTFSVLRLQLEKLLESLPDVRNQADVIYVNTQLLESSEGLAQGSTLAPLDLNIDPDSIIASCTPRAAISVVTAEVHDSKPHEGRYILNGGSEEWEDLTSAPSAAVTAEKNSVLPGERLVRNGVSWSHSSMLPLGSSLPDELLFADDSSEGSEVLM
In short: as §1

Structure (SMILES)	pIC50 (FLT3)	pIC50 (MERTK)	Mer/Flt3 ratio (FLT3 IC50/Mer IC50) (MERTK)
CCc1cc(Nc2ncc3c(OC4CCNCC4)ncc([C@H]4CC[C@H](O)CC4)c3n2)ccc1Cl [Compound 300]	6.00 to 7.00	≥ 7.00	++ (a ratio of between 10 and 100)
COC[C@H](C)Nc1ncc2c(OC3CCOCC3)ncc(-c3ccc(O)cc3)c2n1 [Compound 301]	5.00 to 6.00	≥ 7.00	+++ (a ratio of >100)
COC[C@H](C)Nc1ncc2c(O[C@H]3CCNCC3(F)F)ncc([C@H]3CC[C@H](O)CC3)c2n1 [Compound 302]	5.00 to 6.00	6.00 to 7.00	++ (a ratio of between 10 and 100)
COC[C@H](C)Nc1ncc2c(C)ncc([C@H]3CC[C@H](O)CC3)c2n1 [Compound 303]	5.00 to 6.00	≥ 7.00	+++ (a ratio of >100)
C[C@@H](CF)Nc1ncc2c(OC3CCOCC3)ncc([C@H]3CC[C@H](O)CC3)c2n1 [Compound 304]	5.00 to 6.00	≥ 7.00	+++ (a ratio of >100)
C[C@@H](CC(F)(F)F)Nc1ncc2c(OC3CCOCC3)ncc([C@H]3CC[C@H](O)CC3)c2n1 [Compound 305]	6.00 to 7.00	≥ 7.00	+++ (a ratio of >100)
CC[C@H](C)Nc1ncc2c(OC3CCN(c4ncccn4)CC3)ncc([C@H]3CC[C@H](O)CC3)c2n1 [Compound 306]	5.00 to 6.00	≥ 7.00	+++ (a ratio of >100)
COC[C@H](C)Nc1ncc2c(OC3CCOCC3)ncc(-c3cccc(S(=O)(=O)N(C)C)c3)c2n1 [Compound 307, (S)-3-(2-((1-methoxypropan-2-yl)amino)-5-((tetrahydro-2H-pyran-4-yl)oxy)pyrido[4,3-d]pyrimidin-8-yl)-N,N-dimethylbenzenesulfonamide]	5.00 to 6.00	≥ 7.00	+++ (a ratio of >100)
COC[C@H](C)Nc1ncc2c(O[C@@H]3CCNCC3(F)F)ncc([C@H]3CC[C@H](O)CC3)c2n1 [Compound 308]	5.00 to 6.00	≥ 7.00	+++ (a ratio of >100)
COC[C@H](C)Nc1ncc2c(OC3CCOCC3)ncc(-c3ccc(N)cc3)c2n1 [Compound 309]	5.00 to 6.00	≥ 7.00	+++ (a ratio of >100)
COCCN1C(C)(C)CC(Oc2ncc([C@H]3CC[C@H](O)CC3)c3nc(N[C@@H](C)COC)ncc23)CC1(C)C [Compound 310]	5.00 to 6.00	≥ 7.00	+++ (a ratio of >100)
C[C@@H](CCF)Nc1ncc2c(OC3CCOCC3)ncc([C@H]3CC[C@H](O)CC3)c2n1 [Compound 311]	5.00 to 6.00	≥ 7.00	+++ (a ratio of >100)
COCC[C@H](C)Nc1ncc2c(OC3CCOCC3)ncc([C@H]3CC[C@H](O)CC3)c2n1 [Compound 312]	5.00 to 6.00	≥ 7.00	+++ (a ratio of >100)
CC(C)Nc1ncc2c(OC3CCOCC3)ncc(-c3cccc(S(C)(=O)=O)c3)c2n1 [Compound 313]	5.00 to 6.00	≥ 7.00	+++ (a ratio of >100)
COC[C@H](C)Nc1ncc2c(OC3CCOCC3)ncc(-c3cnn([C@@H]4CCN(C)C4)c3)c2n1 [Compound 314]	5.00 to 6.00	6.00 to 7.00	++ (a ratio of between 10 and 100)
COC[C@H](C)Nc1ncc2c(OC3CCOCC3)ncc([C@H]3CC[C@H](NC(C)=O)CC3)c2n1 [Compound 315]	5.00 to 6.00	≥ 7.00	+++ (a ratio of >100)
COC[C@H](C)Nc1ncc2c(OC3CCOCC3)ncc([C@H]3CC[C@H](NS(C)(=O)=O)CC3)c2n1 [Compound 316]	5.00 to 6.00	≥ 7.00	+++ (a ratio of >100)
CNS(=O)(=O)N[C@H]1CC[C@H](c2cnc(OC3CCOCC3)c3cnc(N[C@@H](C)COC)nc32)CC1 [Compound 317]	< 5.00	≥ 7.00	+++ (a ratio of >100)
CC(C)Nc1ncc2c(OC3CCOCC3)ncc(-c3cccc(S(=O)(=O)C(C)C)c3)c2n1 [Compound 318]	5.00 to 6.00	≥ 7.00	+++ (a ratio of >100)
COC[C@H](C)Nc1ncc2c(OC3CCOCC3)ncc(-c3ccc(CC#N)cc3)c2n1 [Compound 319]	5.00 to 6.00	≥ 7.00	+++ (a ratio of >100)
COC[C@H](C)Nc1ncc2c(OC3CCOCC3)ncc(-c3cccc(C#N)c3)c2n1 [Compound 320]	5.00 to 6.00	6.00 to 7.00	++ (a ratio of between 10 and 100)
CC[C@H](C)Nc1ncc2c(O[C@H]3CC[C@H](N)CC3)ncc([C@H]3CC[C@H](O)CC3)c2n1 [Compound 321]	6.00 to 7.00	≥ 7.00	+++ (a ratio of >100)
CN(C)S(=O)(=O)c1cccc(-c2cnc(OC3CCOCC3)c3cnc(NC4(C)CC4)nc23)c1 [Compound 322]	6.00 to 7.00	≥ 7.00	+++ (a ratio of >100)
CN1C[C@H](Nc2ncc3c(OC4CCOCC4)ncc([C@H]4CC[C@H](O)CC4)c3n2)CC1=O [Compound 323]	5.00 to 6.00	≥ 7.00	+++ (a ratio of >100)
CN1C[C@@H](Nc2ncc3c(OC4CCOCC4)ncc([C@H]4CC[C@H](O)CC4)c3n2)CC1=O [Compound 324]	5.00 to 6.00	6.00 to 7.00	++ (a ratio of between 10 and 100)
